In US9522159B2, “Treatment and prevention of P. aeruginosa infections using coformycin analogs” (Albert Einstein College of Medicine, Inc., priority 2012, dated 2016):
Where “and” joins values, the source holds several entries; their conditions need not be identical. Equal values may be shown once. Entries after “also recorded” stand apart in the source; their conditions may differ. Read-outs that look alike come from different tables or passages of the source. One block for each compound: values may come before it.

Experiments:
PaMTADA [1] = target: T1, PaMTADA (Pseudomonas aeruginosa, UniProt Q9HZ64); assay: Inhibition assays for PaMTADA; format: biochemical
T1 sequence (Q9HZ64 1-444): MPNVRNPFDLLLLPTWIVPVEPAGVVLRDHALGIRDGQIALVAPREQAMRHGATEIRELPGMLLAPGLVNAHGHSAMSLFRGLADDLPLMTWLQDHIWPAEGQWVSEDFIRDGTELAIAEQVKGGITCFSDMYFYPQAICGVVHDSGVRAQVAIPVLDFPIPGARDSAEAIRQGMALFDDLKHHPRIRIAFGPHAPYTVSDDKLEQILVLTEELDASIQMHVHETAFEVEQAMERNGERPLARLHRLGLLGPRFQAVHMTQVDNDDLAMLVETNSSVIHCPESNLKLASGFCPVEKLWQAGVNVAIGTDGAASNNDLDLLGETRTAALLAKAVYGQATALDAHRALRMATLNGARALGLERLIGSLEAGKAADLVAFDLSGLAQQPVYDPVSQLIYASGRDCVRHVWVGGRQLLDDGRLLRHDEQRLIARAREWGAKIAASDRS
Excerpt: (§1) Inhibition assays. […] Controls having no enzyme and no inhibitor were included in all of the inhibition assays. The inhibition constant was obtained by fitting initial rates with variable inhibitor concentrations to equation (1) using GraFit 5 (Erithacus Software): […]
(§2) The inhibitor concentration was corrected using equation (2) when it was less than 10 times of the enzyme concentration (20): […]

PaMTADA [2] = target: T1, PaMTADA; assay: Inhibition of PaMTADA activity in P. aeruginosa cell lysates ([8-14C]MTA degradation); format: biochemical, Pseudomonas aeruginosa PAO1
Protocol: (§3) Inhibition of cellular PaMTADA activity. Inhibition of PaMTADA activity in cell lysates was carried out as follows. P. aeruginosa PAO1 (ATCC number: 15692) was grown at 37° C. to stationary phase in LB medium for 16 hours. Cells were collected by centrifugation at 16,100 g and washed three times with 100 mM phosphate, pH 7.4. Cells were lysed using BugBuster reagent (Novagen). […] Reaction mixtures were quenched with perchloric acid (1.8 M final concentration) and neutralized with potassium hydroxide. Precipitates were removed by centrifugation and carrier hypoxanthine, adenine, MTI, and MTA were added to the supernatant. Separation of the metabolites was carried out on a C18 Luna HPLC column (Phenomenex) with a gradient of 5 to 52.8% acetonitrile in 20 mM triethylamine acetate, pH 5.2. The UV absorbance at 260 nm was monitored. […] Fractions were collected in scintillation vials, dried, reconstituted in 200 μL deionized water prior to addition of 10 mL ULTIMA GOLD LSC-Cocktail scintillation fluid. The cpm of ^14C was counted at 20 min per cycle for three cycles using a Tri-Carb 2910TR liquid scintillation analyzer. Cell lysate was replaced by lysis buffer in reaction mixtures in control experiments. […] All other procedures were the same as described above.
(§4) [formula] where y is the percentage of degraded MTA at certain [I] […] Results and Discussion
Inhibition of cellular PaMTADA activity. […]

Human ADA [3] = target: T2, Human ADA (Homo sapiens, UniProt P00813); conditions: cited from earlier work; for Ki: equilibrium dissociation constant, from Tyler et al. (15); for inhibitory effect on human ADA: result in words
T2 sequence (P00813 1-363): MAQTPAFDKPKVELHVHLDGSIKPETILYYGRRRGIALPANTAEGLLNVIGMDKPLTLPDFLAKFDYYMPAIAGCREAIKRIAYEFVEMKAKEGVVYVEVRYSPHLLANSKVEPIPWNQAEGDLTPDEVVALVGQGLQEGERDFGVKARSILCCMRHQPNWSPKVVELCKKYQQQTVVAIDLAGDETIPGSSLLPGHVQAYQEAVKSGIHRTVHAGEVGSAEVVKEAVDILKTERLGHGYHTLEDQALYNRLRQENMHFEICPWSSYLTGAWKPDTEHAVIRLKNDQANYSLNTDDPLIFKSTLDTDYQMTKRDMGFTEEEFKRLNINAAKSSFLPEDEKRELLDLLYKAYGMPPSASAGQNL

P. aeruginosa PAO1 = assay: Growth of P. aeruginosa PAO1 with or without MTCF (OD600); format: cell-based, Pseudomonas aeruginosa PAO1; conditions: up to 1 μM, 36 hours at 37° C.
Protocol: (§5) Two hypotheses were considered for this activity. […] Second, the residual activity might arise from diffusional release of the inhibitor during the dilution (and incubation) of a small volume of cell extract into the larger volume of lysis buffer and other incubation buffer.

E. coli MTAN = E. coli MTAN (Escherichia coli, UniProt P0AF12); assay: Inhibition assays of EcMTAN; format: biochemical
PaMTADA [4] = target: T1, PaMTADA; assay: Inhibition of cellular PaMTADA activity, MTCF added to LB medium during growth; format: cell-based, Pseudomonas aeruginosa PAO1
Protocol: as §3, §4, §5

human MTAP = target: T3, human MTAP (Homo sapiens, UniProt Q13126); assay: Inhibition assays of HsMTAP; format: biochemical
T3 sequence (Q13126 1-283): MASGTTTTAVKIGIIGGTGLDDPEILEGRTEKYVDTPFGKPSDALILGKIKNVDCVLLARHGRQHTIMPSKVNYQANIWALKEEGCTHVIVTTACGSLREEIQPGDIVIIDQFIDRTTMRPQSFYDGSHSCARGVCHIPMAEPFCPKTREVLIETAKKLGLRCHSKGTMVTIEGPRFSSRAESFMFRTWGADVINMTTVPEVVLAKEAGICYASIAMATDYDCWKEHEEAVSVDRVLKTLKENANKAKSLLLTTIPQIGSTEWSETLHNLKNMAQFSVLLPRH
Protocol: (§6) Enzymatic assays. […] Deaminase activity on guanosine was measured at 260 nm with an extinction coefficient of 3.9 mM^−1cm^−1 (18). […] The extinction coefficient is 15.5 mM^−1cm^−1 at 305 nm. Reactions of deaminase were carried out at 25° C. in 1 cm cuvettes. Assay mixtures of 1 mL contained 50 mM Hepes, pH 7.4, 100 mM NaCl, 100 μg/mL BSA, variable concentrations of substrate, and appropriate amounts of purified PaMTADA. Reactions were initiated by addition of enzyme and the initial rates were monitored with a CARY 300 UV-Visible spectrophotometer. Control rates (no PaMTADA) were subtracted from initial rates. Kinetic parameters of PaMTADA were obtained by fitting initial rates to the Michaelis-Menten equation using GraFit 5 (Erithacus Software).
as §1, §2

[5] = target: E. coli MTA nucleosidase (MTAN) (Escherichia coli, UniProt P0AF12); assay: Degradation of MTCF by E. coli MTA nucleosidase; format: biochemical
Protocol: as §6
(§7) MTCF was examined to test if it might be metabolized by other enzymes related to MTA metabolism, namely by human MTA phosphorylase (MTAP) and E. coli MTA nucleosidase (MTAN).

[6] = target: T4, human MTA phosphorylase (MTAP) (Homo sapiens, UniProt Q13126); assay: Degradation of MTCF by human MTA phosphorylase; format: biochemical
T4 sequence (Q13126 1-283): T3 sequence (Q13126 1-283)
Protocol: as §6, §7

PfADA [7] = target: T5, PfADA (Plasmodium falciparum, UniProt Q8IJA9); conditions: cited from earlier work
T5 sequence (Q8IJA9 1-367): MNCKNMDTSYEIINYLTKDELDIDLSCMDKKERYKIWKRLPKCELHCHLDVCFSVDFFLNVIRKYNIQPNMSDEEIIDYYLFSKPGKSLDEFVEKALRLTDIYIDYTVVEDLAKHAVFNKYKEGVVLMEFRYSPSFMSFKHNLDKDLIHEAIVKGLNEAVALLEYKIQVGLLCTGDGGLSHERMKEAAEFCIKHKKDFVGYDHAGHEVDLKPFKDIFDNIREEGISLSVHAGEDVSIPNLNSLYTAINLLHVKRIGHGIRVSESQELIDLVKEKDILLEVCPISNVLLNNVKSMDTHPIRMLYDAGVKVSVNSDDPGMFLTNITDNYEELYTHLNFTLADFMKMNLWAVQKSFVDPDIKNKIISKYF

PfADA [8] = target: T5, PfADA; assay: PfADA inhibition, Ki values from Tyler et al.; format: biochemical; conditions: times weaker than CF
PaMTADA [9] = target: T1, PaMTADA; assay: Deaminase activity of PaMTADA on substrates (enzymatic assays); format: biochemical; conditions: for deaminase activity on substrate: PaMTADA (recombinant PA3170), result in words
Protocol: as §6

Human ADA [10] = target: T2, Human ADA; conditions: substrate, from Tyler et al. (15); cited from earlier work
[11] = tested on: CC(O)[C@H]1O[C@@H](n2cnc3c(N)ncnc32)[C@H](S)[C@@H]1O; assay: purified protein, by the assay type; conditions: other: PaMTADA, substrate, 25° C., pH 7.4
[12] = equilibrium dissociation constant, from Tyler et al. (15), read-out: PfADA Ki
[13] = PaMTADA, substrate, 25° C., pH 7.4

Ki (PaMTADA [1]; equilibrium dissociation constant (Ki or Ki*), 25° C., pH 7.4, 100 μM MTA, read-out: PaMTADA Ki): 90 ± 10 nM
Compound: OC[C@H]1O[C@@H](n2cnc3c2N=CNC[C@H]3O)[C@H](O)[C@@H]1O [Coformycin (CF), Coformycin]

Ki (PaMTADA [1]): 37 nM
Compound: OC[C@H]1O[C@@H](n2cnc3c2NC=NC[C@H]3O)C[C@@H]1O [DCF, 2′-deoxycoformycin, reference compound]

Compound: CSC[C@H]1O[C@@H](n2cnc3c2N=CNC[C@H]3O)[C@H](O)[C@@H]1O [MTCF, 5′-methylthiocoformycin]
degradation of MTA (PaMTADA [2]; 50 nM inhibitor in cell lysate): completely blocked
IC50 (PaMTADA [2]; MTCF added to P. aeruginosa cell lysate, [8-14C]MTA degradation, 20 min): 4 nM
Ki (Human ADA [3]): > 10000 nM
inhibitory effect on human ADA (Human ADA [3]): no significant inhibition; also recorded: no significant inhibitory effects
effect on cell growth (P. aeruginosa PAO1): no effect
Ki (E. coli MTAN): > 5000 nM
concentration at which maximal inhibition was achieved (PaMTADA [4]; MTCF in LB medium): 10 nM
IC50 (PaMTADA [4]; MTCF in LB medium during growth, corrected for residual activity): 3 nM
PaMTADA activity (PaMTADA [4]; cells grown with 500 nM MTCF in LB, 100 nM MTCF added to cell lysate): All PaMTADA activity was inhibited
permeability to P. aeruginosa cells (PaMTADA [4]; inferred from inhibition after growth in MTCF-containing LB): permeable
Ki (human MTAP): 3000 nM
inhibition of human MTA phosphorylase (human MTAP; result in words): no significant inhibition; also recorded: no significant inhibitory effects
degradation of MTCF, kobs [5]: < 0.001 s⁻¹
degradation of MTCF, kobs [6]: < 0.001 s⁻¹

Compound: CSCC1OC(n2cnc3c2N=CNCC3O)CC1O (centres unmarked) [MTDCF, 5′-methylthio-2′-deoxycoformycin]
Ki (Human ADA [3]): > 10000 nM
inhibitory effect on human ADA (Human ADA [3]): no inhibitory effect
Ki (PfADA [7]; [12]): 0.7 ± 0.2 nM
Ki (PfADA [7]; from (15), read-out: PfADA Ki / equilibrium dissociation constant): 0.7 nM
binding affinity for PfADA relative to CF (PfADA [8]): 9 times
Ki (PaMTADA [1]): 0.008 nM

Compound: O[C@@H]1CNC=Nc2c1ncn2[C@H]1C[C@H](O)[C@@H](CSc2ccccc2)O1 [PhTDCF, 5′-phenylthio-2′-deoxycoformycin]
Ki (PfADA [7]; [12]): 60 nM
Ki (PaMTADA [1]; 25° C., pH 7.4, 100 μM MTA, read-out: PaMTADA Ki / dissociation constant): 0.13 nM

binding affinity for PfADA relative to CF (PfADA [8]): 150 times
Ki (PaMTADA [1]): 0.067 nM
Compound: CCCSCC1OC(n2cnc3c2N=CNCC3O)CC1O (centres unmarked) [PrTDCF, 5′-propylthio-2′-deoxycoformycin]
Ki (Human ADA [3]): > 10000 nM
binding to PaMTADA relative to MTDCF (PaMTADA [1]; times weaker than MTDCF): 8 times

Compound: Nc1ncnc2c1ncn2[C@@H]1O[C@H](CSCC[C@H](N)C(=O)O)[C@@H](O)[C@H]1O [SAH, S-adenosylhomocysteine]
deaminase activity on substrate (PaMTADA [9]): inactive

Compound: Nc1ncnc2nc[nH]c12 [adenine]
deaminase activity on substrate (PaMTADA [9]): inactive

Compound: Nc1ncnc2c1ncn2[C@@H]1O[C@H](CO)[C@@H](O)[C@H]1O [adenosine]
Km (PaMTADA [9]; [13]): 46 µM
kcat (PaMTADA [9]; [13]): 17 s⁻¹ and 17 ± 1 s⁻¹
Km (Human ADA [10]): 22 ± 3 µM
kcat (Human ADA [10]): 36 ± 1 s⁻¹

Compound: Nc1nc2c(ncn2[C@@H]2O[C@H](CO)[C@@H](O)[C@H]2O)c(=O)[nH]1 [guanosine]
deaminase activity on substrate (PaMTADA [9]): inactive

Compound: PaMTADA (Pseudomonas aeruginosa PAO1)
Km [11]: 1.5 µM
kcat [11]: 24.6 ± 0.8 s⁻¹
kcat/Km [11]: 160 ± 30 ×10^5 M^−1s^−1
